What was measured:
[1] = Glucose-induced membrane lipid peroxidation (LOOH, CHOD-iodide assay) in DLPC/cholesterol vesicles (Examples 4 and 5); type: biochemical; conditions: each at 1.0 μM; glucose 200 mg/dL; 96 hours
Protocol: Vitamin E (α-tocopherol) was also purchased from Sigma-Aldrich and prepared in ethanol at 1.0 mM (e=[…] at 294 nm) just prior to experimental use. […] All test compounds were further diluted in ethanol or aqueous buffer as needed. Glucose was prepared in saline buffer (0.5 mM HEPES, 154 mM NaCl, pH 7.3) at 11.0 mM (200 mg/dL). CHOD-iodide color reagent (stock) was prepared, with slight modification, as described by from El-Saadani et al. (J. […] Samples were shell-dried under nitrogen gas and placed under vacuum for 1 h to remove residual solvent. […] Lipid suspensions were then vortexed for 3 min at ambient temperature to form MLVs. All MLV samples were subjected to time-dependent autoxidation by incubating at 37° C. in an uncovered, shaking water bath. This method allows lipid peroxidation to occur gradually without requiring the use of exogenous initiators. Small aliquots (5-100 μL) of each sample were removed, immediately following MLV preparation (0 hour) and after exposing samples to oxidative conditions for 72 or 96 hour, and combined with 1.0 mL of activated CHOD-iodide color reagent. Aliquot volume was reduced with each successive time point to ensure that spectrophotometric readings were within the optimal adsorption range. Test samples were covered and incubated in darkness at room temperature for at least 4 hr. Sample absorbances were then measured against a CHOD blank at 365 nm using a Beckman DU-640 spectrophotometer. The CHOD colorimetric assay is based on the oxidation of iodide (I^−) by lipid hydroperoxide (LOOH) to form triiodide (I3^−), the quantity of which is directly proportional to the amount of LOOH present in the lipid sample. The molar absorptivity (ε) of I3^− is 2.46×10^4 M^−1 cm^−1 at 365 nm. An experiment was conducted to compare the ability of EPA to prevent lipid hydroperoxide formation in model membranes treated with glucose to two other 20-carbon fatty acids: eicosanoic acid (“EA,” also referred to as arachidic acid, C20:0) and eicosatrienoic acid (“ETE,” C20:3, n-3). All MLV samples were subjected to time-dependent autoxidation by incubating at 37° C. in an uncovered, shaking water bath. This method allows lipid peroxidation to occur gradually without requiring the use of exogenous initiators. Small aliquots (5-100 μL) of each sample were removed, immediately following MLV preparation (0 hr) and after exposing samples to oxidative conditions for 72 or 96 hr, and combined with 1.0 mL of activated CHOD-iodide color reagent. Aliquot volume was reduced with each successive time point to ensure that spectrophotometric readings were within the optimal adsorption range. Test samples were covered and incubated in darkness at room temperature for at least 4 hr. Sample absorbances were then measured against a CHOD blank at 365 nm using a Beckman DU-640 spectrophotometer. The CHOD colorimetric assay is based on the oxidation of iodide (I^−) by lipid hydroperoxide (LOOH) to form triiodide (I3^−), the quantity of which is directly proportional to the amount of LOOH present in the lipid sample. The molar absorptivity (ε) of I3^− is 2.46×10^4 M^−1 cm^−1 at 365 nm.

[2] = tested on: human sdLDL; assay: Copper-induced sdLDL oxidation, TBARS (Example 7); type: biochemical
Protocol: (§1) An experiment to study the antioxidant effect of EPA in LDL and small dense […] performed. […] Fenofibrate, gemfibrozil, and niacin were purchased from Sigma-Aldrich. […] Vitamin E was also incubated with sample aliquots as a positive control.

[3] = tested on: human LDL; assay: Copper-induced oxidation of unfractionated LDL, TBARS (Example 7); type: biochemical
Protocol: as §1

[4] = tested on: rat renal glomerular endothelial cells; assay: NO and ONOO^− release ex vivo from rat glomerular endothelial cells exposed to oxLDL and high glucose (Example 13); type: cell-based; conditions: oxLDL 11 mg/dL and glucose 300 mg/dL; treatment 1 hr at 10.0 μM; versus vehicle
Protocol: Healthy male Wistar Kyoto (WKY) rats, aged 7-9 weeks and weighing 250±20 g, were obtained from inbred colonies (National Institutes of Health, Bethesda, Md.). Animals were housed in a controlled environment that provided food and water ad libitum prior to the study. […] Animals were sacrificed and tissue samples obtained immediately for experimentation. All procedures were conducted in accordance with standard Institutional Animal Care and Use Committee guidelines and conformed to the Guide for the Care and Use of Laboratory Animals published by the US National Institutes of Health.
EPA and DHA were purchased from Sigma-Aldrich (St. Louis, Mo.) and solubilized in ethanol to 1.0 mM under nitrogen atmosphere. […] The calcium ionophore (Cal), A23187, was purchased from Sigma-Aldrich and prepared in aqueous buffer to 1.0 mM. All test compounds were further diluted in ethanol or aqueous buffer as needed.
Venous blood from healthy normolipidemic volunteers was collected into Na-EDTA (1 mg/mL blood) vacuum tubes after a 12-hour fast. […] The LDL fraction was dialyzed for 96 hours against PBS containing 0.3 mM EDTA and stored at 4° C. until experimental use.
LDL was oxidized according to the methods of Huber et al. 16 Briefly, the purified LDL fraction was dialyzed against Tris/NaCl Buffer (50 mM Tris in 0.15 M NaCl, pH 8.0) to remove EDTA. Additional buffer was added to adjust the protein concentration to 30 mg/mL. LDL oxidation was initiated with 20 μM CuSO4 and monitored spectrophotometrically (234 nm) over a period of 24 hours until complete. The oxLDL was then dialyzed at 4° C. with 4 L Tris buffer, filtered with a 0.22 µm filter, and stored under nitrogen at 4° C.
Immediately after sacrificing the rats, kidneys were removed, cut into […] sections and transferred to a separate organ chamber containing Dulbecco's phosphate buffered saline ([…]) and […] glucose at pH 7.4.
Concurrent measurements of NO and ONOO^− were performed on intact glomerular (cortical zone) endothelial cells using tandem electrochemical nanosensors, as previously described (FIG. 45).
The NO/ONOO^− nanosensor was positioned near the surface of the endothelial cells using a computer-controlled M3301 micromanipulator (x-y-z resolution of 0.2 μm) and microscope (both from World Precision Instruments, Berlin, Germany) fitted with a CD camera. Each analyte was measured from amperograms and standard calibration curves collected under maximum current. […] After establishing a background current, maximal NO and ONOO^− release was induced by injecting Cal into the organ chamber using a nanoinjector (World Precision Instruments, Berlin Germany). Changes in current (proportional to the molar concentrations of NO or ONOO^− released) were monitored continuously immediately following Cal stimulation.
Data are presented as mean+standard deviation (SD) for (N) separate samples or experiments. Differences between groups were analyzed using the unpaired, two-tailed Student's t-test (for comparisons between only two groups) or ANOVA followed by Student-Newman-Keuls multiple comparisons post hoc analysis (for comparisons between three or more groups). Only differences with probability values less than 0.05 were considered significant.

[5] = 10 mg, administered for 12 weeks; cited from earlier work
[6] = 80 mg for 16 weeks; 2,341 patients; cited from earlier work
[7] = molecular target: T1, HMG-CoA reductase (Homo sapiens, UniProt P04035); conditions: metabolized by hepatic cytochrome P450; cited from earlier work
T1 sequence (P04035 1-888): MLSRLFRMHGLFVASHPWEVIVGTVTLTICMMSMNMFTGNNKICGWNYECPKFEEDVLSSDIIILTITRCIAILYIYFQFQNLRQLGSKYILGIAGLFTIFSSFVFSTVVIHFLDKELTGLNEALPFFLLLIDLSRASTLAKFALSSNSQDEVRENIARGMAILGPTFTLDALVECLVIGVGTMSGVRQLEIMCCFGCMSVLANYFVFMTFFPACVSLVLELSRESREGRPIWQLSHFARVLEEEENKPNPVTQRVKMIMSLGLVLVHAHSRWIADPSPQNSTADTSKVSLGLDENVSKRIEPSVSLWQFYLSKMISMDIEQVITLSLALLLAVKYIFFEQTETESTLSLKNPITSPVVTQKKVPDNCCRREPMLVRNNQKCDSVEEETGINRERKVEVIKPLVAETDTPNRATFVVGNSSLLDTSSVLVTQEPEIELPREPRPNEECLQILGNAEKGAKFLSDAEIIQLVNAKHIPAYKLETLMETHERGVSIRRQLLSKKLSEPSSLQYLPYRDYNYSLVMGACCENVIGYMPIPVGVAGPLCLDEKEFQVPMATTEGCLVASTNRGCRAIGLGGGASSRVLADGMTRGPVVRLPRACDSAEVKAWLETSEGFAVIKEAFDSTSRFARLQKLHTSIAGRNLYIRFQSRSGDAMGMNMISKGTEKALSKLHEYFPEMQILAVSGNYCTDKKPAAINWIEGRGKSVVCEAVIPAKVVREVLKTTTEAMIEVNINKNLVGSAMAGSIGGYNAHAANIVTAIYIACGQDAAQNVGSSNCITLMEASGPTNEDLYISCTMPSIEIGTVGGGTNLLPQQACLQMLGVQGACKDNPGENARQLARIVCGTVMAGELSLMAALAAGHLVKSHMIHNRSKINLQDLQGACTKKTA

Row | SMILES | antioxidant effect, separate treatments [1] | inhibition of sdLDL oxidation as compared to vehicle ([2]; 1.0 μM (each agent), 1 hr) [%] | inhibition of sdLDL oxidation as compared to vehicle ([2]; ATM 0.5 μM, alone or in combination with EPA 1.0 μM, 1 hr) [%] | inhibition of sdLDL oxidation ([2]; ATM at the highest dose, 1 hr) [%] | effect on unfractionated LDL oxidation, dose dependence ([3]; 1 hour) | increase in NO release [4] [%] | reduction of ONOO^− release [4] [%] | antioxidant activity, separately ([2]; 10.0 μM, sdLDL) | inhibition of sdLDL oxidation as compared to vehicle ([2]; each agent at 10.0 μM, 1 hour (FIG. 17)) [%] | antioxidant activity, separately ([3]; 10.0 μM, unfractionated LDL) | circulating levels of chlorotyrosine, nitrotyrosine, and dityrosine [5] | levels of oxidized lipids associated with all apoB100-containing lipid particles [6] | share of circulating HMG-CoA reductase inhibitory activity accounted for by the active metabolites [7]
1 | CC(C)c1c(C(=O)Nc2ccccc2O)c(-c2ccccc2)c(-c2ccc(F)cc2)n1CC[C@@H](O)C[C@@H](O)CC(=O)O [ATM, Atorvastatin ortho-(o-) hydroxy (active) metabolite] | separate and potent antioxidant effects | 18±5 | 5±5 | 90±2 | significant and dose-dependent inhibition of unfractionated LDL oxidation beginning at 1.0 μM | 205 | 25 | – | – | – | – | – | –
2 | CC(C)c1c(C(=O)Nc2ccccc2)c(-c2ccccc2)c(-c2ccc(F)cc2)n1CC[C@@H](O)C[C@@H](O)CC(=O)O [atorvastatin] | – | – | – | – | – | – | – | did not have any significant antioxidant activity | 0.1±7 | did not have any significant antioxidant activity | significantly reduce circulating levels of chlorotyrosine, nitrotyrosine, and dityrosine | significant reduction in levels of oxidized lipids | approximately 70%

From US20190054054A1, “Methods reducing or preventing oxidation of high density lipoprotein (HDL)” (Amarin Pharmaceuticals Ireland Limited, priority 2017, published 2019)
